Source: PMC4666645 (PLoS Pathogens, 2015)
Where a name gives a salt, the structure may show the parent alone.

What was measured:
native C. elegans L-AChR = details: cited from earlier work
[1] = biological target: T1, Hco-L-AChR-2 (Hco-UNC-38, Hco-UNC-63, Hco-UNC-29.1) (Haemonchus contortus, UniProt D6MYE9+D6MYF3+D6MYF4); assay: Two-electrode voltage-clamp on Xenopus oocytes expressing Hco-L-AChR-2; assay type: cell-based; details: for Response to agonist: 100 μM agonist
T1 sequence (D6MYF3 20-512): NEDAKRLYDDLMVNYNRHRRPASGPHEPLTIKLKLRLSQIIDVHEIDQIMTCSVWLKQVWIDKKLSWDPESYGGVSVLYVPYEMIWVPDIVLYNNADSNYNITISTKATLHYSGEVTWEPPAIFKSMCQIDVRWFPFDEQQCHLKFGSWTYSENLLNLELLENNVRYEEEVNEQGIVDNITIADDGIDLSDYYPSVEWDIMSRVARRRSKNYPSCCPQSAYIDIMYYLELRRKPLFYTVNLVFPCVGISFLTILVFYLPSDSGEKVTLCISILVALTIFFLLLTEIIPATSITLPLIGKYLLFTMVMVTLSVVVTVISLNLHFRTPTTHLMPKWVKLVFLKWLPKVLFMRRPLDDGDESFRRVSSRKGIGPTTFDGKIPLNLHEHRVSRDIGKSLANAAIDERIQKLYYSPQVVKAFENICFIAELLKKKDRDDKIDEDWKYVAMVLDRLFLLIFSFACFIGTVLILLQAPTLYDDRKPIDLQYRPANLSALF
T1 sequence (D6MYF4 22-504): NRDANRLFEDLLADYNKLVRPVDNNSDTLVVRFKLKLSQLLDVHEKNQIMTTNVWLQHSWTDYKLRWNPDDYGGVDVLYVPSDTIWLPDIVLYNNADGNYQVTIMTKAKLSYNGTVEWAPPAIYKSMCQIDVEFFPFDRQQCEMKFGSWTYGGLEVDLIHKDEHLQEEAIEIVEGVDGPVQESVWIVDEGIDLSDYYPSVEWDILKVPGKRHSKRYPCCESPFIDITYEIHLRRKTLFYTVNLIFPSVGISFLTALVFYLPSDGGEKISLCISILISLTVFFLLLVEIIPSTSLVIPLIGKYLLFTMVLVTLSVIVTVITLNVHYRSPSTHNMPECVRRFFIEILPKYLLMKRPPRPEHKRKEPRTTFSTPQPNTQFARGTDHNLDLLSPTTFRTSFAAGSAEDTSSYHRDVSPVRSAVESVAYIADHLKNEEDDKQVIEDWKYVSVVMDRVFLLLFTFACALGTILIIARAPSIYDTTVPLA
T1 sequence (D6MYE9 21-498): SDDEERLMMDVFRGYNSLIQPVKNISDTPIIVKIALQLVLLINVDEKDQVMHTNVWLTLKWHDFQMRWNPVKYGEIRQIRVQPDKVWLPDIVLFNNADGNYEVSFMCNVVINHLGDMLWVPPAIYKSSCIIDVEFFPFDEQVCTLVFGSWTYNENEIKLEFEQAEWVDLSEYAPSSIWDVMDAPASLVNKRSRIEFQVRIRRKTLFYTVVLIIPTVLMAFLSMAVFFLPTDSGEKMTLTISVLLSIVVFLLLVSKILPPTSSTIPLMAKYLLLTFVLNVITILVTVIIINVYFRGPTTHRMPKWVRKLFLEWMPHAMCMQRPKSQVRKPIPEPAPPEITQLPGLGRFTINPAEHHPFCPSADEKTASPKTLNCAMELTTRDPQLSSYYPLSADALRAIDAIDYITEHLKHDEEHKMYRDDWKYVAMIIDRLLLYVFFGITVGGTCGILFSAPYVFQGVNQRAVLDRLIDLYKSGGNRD
Description: H. contortus and P. equorum acr-26 and acr-27 cDNAs were PCR-amplified using primers containing a restriction site in order to be sub-cloned into the expression vector pTB207 that is suitable for in vitro transcription. Primers are listed in S3 Table. The resulting plasmids were linearized with the NheI restriction enzyme (Fermantas) and used as templates for cRNA synthesis using the T7 mMessage mMachine kit (Ambion). Xenopus laevis ovaries were obtained from the University of Rennes, France (CRB Xenope) and defolliculated using 2 mg/ml collagenase type II (Gibco) in the incubation solution containing: 100 mM NaCl, 2 mM KCl, 1.8 mM CaCl2.2H2O, 1 mM MgCl2.6H2O, 5 mM HEPES, 2.5 mM C3H3NaO3, pH 7.5, supplemented with penicillin 100 U/mL and streptomycin 100 μg/mL). The oocytes were injected in the animal pole with a total volume of 36 nL of cRNA mix containing 50 ng/μL of each cRNA in RNase-free water using the Drummond nanoject II microinjector. Microinjected oocytes were kept at 20°C in incubation medium for 4 days to allow the receptors expression. Two-electrode voltage-clamp recordings were carried out using an Oocyte Clamp OC-725C amplifier (Warner instrument) in oocytes being voltage-clamped at -60mV. All agonist preparations were prepared with recording buffer (100 mM NaCl, 2.5 mM KCl, 1 mM CaCl2.2H2O, 5 mM HEPES, pH 7.3). Currents were recorded and analyzed using the pCLAMP 10.4 package (Molecular Devices).
Supplementary file ppat.1005267.s003.tif: S3 Fig Pharmacological profiles of Hco-L-AChR-1 and Hco-L-AChR-2. […] The bars indicate the time period of the agonist application. Functional expression of Hco-L-AChR-1 requires the co-expression of Hco-UNC-38; Hco-UNC-63; Hco-UNC-29.1 and Hco-ACR-8 AChR subunits with the ancillary proteins Hco-RIC-3.1; Hco-UNC-50 and Hco-UNC-74 whereas Hco-L-AChR-2 requires the co-expression of Hco-UNC-38; Hco-UNC-63 and Hco-UNC-29.1 AChR subunits with the ancillary proteins Hco-RIC-3.1; Hco-UNC-50 and Hco-UNC-74. (C) Scatter plot (mean ± SEM) of normalized currents elicited by 100 μM Mor on Hco-26/27, Hco-L-AChR-1 and Hco-L-AChR-2. […]

In the case of c1ccc([C@H]2CN3CCSC3=N2)cc1 [Lev, (-)-tetramisole hydrochloride], the EC50 (native C. elegans L-AChR) is given as 10 µM.

With Cc1ccsc1/C=C/C1=NCCCN1C [Mor, morantel] the EC50 [1] was 3.2 ± 1.2 µM and the “Response to agonist” value [1] was “less activated”.

With CN1CCCN=C1/C=C/c1cccs1 [Pyr, pyrantel] the “Response to agonist” value [1] was “highly responsive”.
